Assay results published in patent US11958812B2, “3, 5-disubstituted pyridine and 3, 5-disubstituted pyridazine derivatives and pharmaceutical use of same” (MITSUBISHI TANABE PHARMA CORPORATION, priority 2018, dated 2024).

What was measured:
[1] = tested on: Macaca fascicularis laser-induced high intraocular pressure model; experiment: Macaca fascicularis laser-induced high intraocular pressure model; assay type: in vivo; conditions: left eye with high intraocular pressure
Method: [Study of Action of ATX Inhibitor on Macaca fascicularis Intraocular Pressure]
The efficacy of ATX inhibitor (Example 5, hereinafter indicated as in example 5 in the Figures) for Macaca fascicularis laser-induced high intraocular pressure model was evaluated using the intraocular pressure lowering action as an index.
A green laser beam at wavelength 532 nm was uniformly irradiated to 360° around of the trabecular meshwork, which is the excretory passage of the aqueous humor, of the left eye alone, whereby high intraocular pressure was induced. The right eye was maintained normal. […]
The required amount of ATX inhibitor (Example 5) was weighed, transferred to an agate mortar and lightly ground. […] The oral vehicle was added to increase the amount and the pH was confirmed to be not exceeding 11.0 (measured value: pH10.55-10.88).
A 0.04 mol/L boric acid/phosphoric acid/acetic acid mixed solution (307 mL) was mixed with a 0.2 mol/L aqueous sodium hydroxide solution (193 mL) (pH about 8.4), pH was adjusted to 8.5 with 1 mol/L hydrochloric acid to prepare Britton-Robinson buffer (pH 8.5). […] 4.5 mg of ATX inhibitor (Example 5) was measured in a 10 mL measuring flask, the instillation administration vehicle (9.6 mL) was added and the mixture was sonicated for 30 min in an ultrasonication washing machine set to about 40° C. […]

[2] = tested on: bleomycin (BLM)-induced lung fibrosis model; experiment: Mouse bleomycin-induced lung fibrosis model: fibrosis markers in plasma, BALF and lung; assay type: in vivo, female C57BL/6J mouse; conditions: 30 mg/kg, bid, oral, 14 days
Method: [Consideration of Action of ATX Inhibitor on Mouse Bleomycin-Induced Lung Fibrosis Model]
The effectiveness of an ATX inhibitor (Example 5, hereinafter to be referred to as example 5 in the Figures) on bleomycin (BLM)-induced lung fibrosis model was evaluated using, as an index, variation of each fibrosis index marker in the plasma or BALF, or fibrosis related genes in the lung.
8-Week-old mice were grouped in the group constitution shown in Table 24 using a simulation method such that the body weight would become uniform before the previous day of bleomycin administration (SOP/STA/RA-0003). The mice were anesthetized with isoflurane, 0.5 mg/mL of bleomycin solution was intratracheally administered at 50 μL/head to produce a bleomycin-induced lung fibrosis model (1.25 U/kg). In the saline group, physiological saline was administered instead of bleomycin. The ATX inhibitor (Example 5) was orally administered two times per day from the day of bleomycin administration. In addition, the body weight was measured once per day from the day of grouping.
One equivalent of a mixture of 1N NaOH and 0.5% CMC solution (100 μL in total) relative to the ATX inhibitor (Example 5) was added, 10 zirconia beads (φ3 mm) were added, and they were pulverized using a mixer mill MM400 (frequency 28.01/min, pulverization time 10 min). 0.5% CMC was added to […] to give a suspension and the suspension was sonicated for 10 min. The administration dose volume was 10 mL/Kg and the administration dose amount was 30 mg/kg. Administration was performed twice per day and the initial administration was performed 30 min before BLM administration.
animal species: female C57BL/6J mouse, supply company: CHARLES RIVER LABORATORIES JAPAN, INC., number of animals used: 10 per group (age at arrival: 7 weeks old).
At 14 days from the bleomycin administration, plasma, BALF and lung tissue were collected. BALF was recovered and the concentration of LPA (18:2) in BALF (FIG. 6) was measured. After blood was collected from the abdominal vena cava, whole blood was anticoagulated using heparin and centrifuged to collect plasma. Then, the ATX activity (FIG. 5) and SP-D (FIG. 1) in the plasma were measured. Furthermore, the chest was opened and whole lung tissue was collected, and gene expression of each of Col1a1 (FIG. 2), CTGF (FIG. 3) and IL-6 (FIG. 4) in the lung was analyzed. For the gene expression analysis, mRNA was extracted from the lung tissue using TRIzol, reverse transcription was performed using a kit of Life technologies, and qPCR was performed using Tagman probe.
An organic solvent and LPA (17:0) solution as an internal standard substance were added to the collected BALF (200 μL), and the mixture was dried to solidness under reduced pressure at 35° C. […] The analysis sample was separated by reversed-phase column and LPA (18:2) was detected by the QTRAP6500 system (ABSciex). In addition, LPA (18:2) synthesis reference standard was added to PBS buffer used for recovery of BALF and compared with the analytical curve sample that underwent a similar pre-treatment, whereby the concentration of LPA (18:2) contained in BALF was calculated (FIG. 6).
The difference between the saline group and the BLM administration group and the difference between the BLM administration group and the compound administration group were analyzed by the Student's t-test wherein the significance level was 5% on both sides. […]

COc1ccc(-c2cnnc(OC[C@H]3CC[C@H](C(F)(F)F)CC3)c2)nc1[C@H]1C[C@@H]1C(=O)O [Example 5, (1S,2S)-2-[3-methoxy-6-(6-{[trans-4-(trifluoromethyl)cyclohexyl]methoxy}pyridazin-4-yl)pyridin-2-yl]cyclopropanecarboxylic Acid]
intraocular pressure lowering action, single instillation administration ([1]; instillation, 0.0135 mg/eye, FIG. 8): statistically significant intraocular pressure lowering action
intraocular pressure lowering action, single oral administration ([1]; oral, 100 mg/kg, FIG. 7): statistically significant intraocular pressure lowering action
SP-D in the plasma ([2]; FIG. 1): suppressed
production of LPA (C18:2) in BALF ([2]; FIG. 6): suppressive action
Col1a1 gene expression in the lung ([2]; mRNA in lung tissue, FIG. 2): expression suppressive action
CTGF gene expression in the lung ([2]; mRNA in lung tissue, FIG. 3): expression suppressive action
IL-6 gene expression in the lung ([2]; mRNA in lung tissue, FIG. 4): expression suppressive action
